This note sets out measurements from patent US20030065039A1, “Biologically active 1,3-bis-aromatic-prop-2-en-1-ones, 1,3-bis-aromatic-propan-1-ones, and 1,3-bis-aromatic-prop-2-yn-1-ones” (Statens Serum Institute, priority 1997, published 2003).

The test system of one data set is Leishmania promastigotes. The data set can be described thus: Leishmania promastigotes Assay. Format: cell-based. Particulars: Leishmania; promastigotes, 3H-thymidine uptake; read-out: Leishmania IC50 ± SD. The procedure, abridged:
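L. major (WHO Iran vaccine strain) and L. donovani MHOM/KE/85/NLB 274 promastigotes (3×10^6/ml, day 3 and 6 cultures) exposed to compound 2 h at 26 °C, then 3H-thymidine 18 h; incorporation counted by scintillation. Microscopic counts and flagellar motility also assessed.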

Another data set concerns human lymphocytes. The experiment in a line: Lymphocyte Proliferation Assay. Type of data set: cell-based. Particulars: Lymphocyte; PHA provoked proliferation of human lymphocytes; read-out: Lymphocytes IC50 ± SD. The procedure, abridged:
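Ficoll-isolated human blood mononuclear cells (0.63×10^5/ml) in RPMI 1640 with 5% FCS were cultured in triplicate with test compound and PHA or PPD for 3 or 7 days. Proliferation measured by ^3H-thymidine incorporation over the final 24 h; triplicate median recorded.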

A further data set concerns Plasmodium falciparum. The data set can be described thus: Plasmodium falciparum Assay. Format: cell-based. Particulars: Plasmodium falciparum; 3-H-hypoxanthine incorporation, 48 hours; read-out: Plasmodium IC50 ± SD. An outline of the steps:
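Parasitized erythrocytes (~1% parasitemia, 5×10^8/ml) cultured 48 h in RPMI with test compound, with 3H-hypoxanthine added for the last 24 h. Growth inhibition read as 3H-hypoxanthine incorporation into parasite DNA by liquid scintillation; uninfected and untreated infected cultures run in parallel.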

The subject of the next data set is Helicobacter pylori. The data set can be described thus: Helicobacter species Assay (agar plate, MIC). Type of data set: cell-based. The procedure: 20 strains of Helicobacter pylori were used in an agar plate assay. The compounds were incorporated in the agar plates at different concentrations as described in the examples and were then inoculated with different strains of Helicobacter pylori followed by incubation in a microaerophilic atmosphere at 37° C. for 72 hours. The number of colony-forming units (CFU) were counted after the incubation period. The MIC values were determined as the minimal concentration required to inhibit growth of the bacteria.
(§1) Stock solutions were made at a concentration of 1 mg/ml by dissolving 1 mg of each compound in 100 μl DMSO (dimethylsulfoxide) followed by addition of 900 μl of heat-inactivated fetal claf serum (HFCS). These stock solutions were diluted with HFCS to make solutions having the following concentrations: 320 μg/ml, 160 μg/ml, 80 μg/ml, 40 μg/ml and 20 μg/ml. Dilution rows were made with 3 ml aliquots in vials containing the compounds in the following final test concentrations: 16 μg/ml, 8 μg/ml, 4 μg/ml, 2 μg/ml and 1 μg/ml. As control was used DMSO-HFCS containing an amount of DMSO equal to the amount of test compound in the solution with 320 μg/ml compound.
Bacteria: 20 strains of Helicobacter pylori were used in an agar plate assay. The compounds were incorporated in the agar plates at different concentrations and then they were inoculated with different strains of Helicobacter pylori followed by incubation at microaerophilic atmosphere at 37° C. in 72 hours. The number of colony-forming units (CFU) were counted after the incubation period. The MIC values were determined as the minimal concentration required to inhibit growth of the bacteria.
as §1, with “concentrations: 2560 μg/ml, 1280 μg/ml, 640 μg/ml,” for “concentrations:”, “160 µg/ml and” for “160 μg/ml,”, “80” for “80 μg/ml, 40 μg/ml and 20”, “concentrations: 128 μg/ml, 64 μg/ml, 32 μg/ml, 12” for “concentrations: 16”, “8” for “8 μg/ml, 4 μg/ml, 2”, “and 4” for “and 1”
Bacteria: 20 strains of Helicobacter pylori were used in an agar plate assay. The same method as described above under Experiment A was employed and MIC values were determined.

Converted amounts (≈) assume the structure as drawn.

As usually defined, the IC50 is the concentration needed to halve the response being measured. The term melting point denotes the temperature, or range, at which the solid turns liquid. In the case of `COc1cc(/C=C/C(=O)c2ccccc2N(C)C)cc(OC)c1` [2′-N(CH3)2-3,5-OCH3, 3,5-dimethoxy-2′-dimethylaminochalcone], the melting point fell in the range of 159.8 to 160.5 °C. Besides, in the data set on Leishmania promastigotes, the IC50 was determined as 7.3 ± 1 µM. Further, the IC50 in the data set with human lymphocytes worked out at 5.7 ± 0.3 µM. Also, the IC50 with Plasmodium falciparum came to 13 µM.

On to `COc1cc(/C=C/C(=O)c2cccc(O)c2)cc(OC)c1` [3′-OH-3,5-OCH3, 3,5-dimethoxy-3′-hydroxychalcone], for which the melting point was in the range of 126.2 to 126.8 °C. Besides, the IC50 with Leishmania promastigotes is 3.7 ± 0.6 µM. For the same molecule, the 50% inhibitory concentration (IC50) with human lymphocytes was determined as 3.2 ± 0.4 µM. In the data set on Plasmodium falciparum, the IC50 turned out to be 28 µM.

As to `COc1ccc(C(=O)/C=C/c2ccccc2O)c(OC)c1OC` [2-OH-2′,3′,4′,-OCH3, 2-hydroxy-2′,3′,4′-trimethoxychalcone], the melting point fell in the range of 122.6 to 123 °C. Further, the IC50 with Leishmania promastigotes turned out to be 9.3 ± 1 µM. In the data set on human lymphocytes, the IC50 worked out at 9 ± 0.7 µM. In the data set with Plasmodium falciparum, the IC50 was found to be 10 µM.

The molecule `COc1ccc(C(=O)/C=C/c2cccc([N+](=O)[O-])c2)c(OC)c1OC` [3-NO2-2′,3′,4′-OCH3, 3-nitro-2′,3′,4′-trimethoxychalcone] had a melting point of 130.1 to 130.7 °C. Besides, the concentration for half-maximal inhibition (IC50) with Leishmania promastigotes came out at 17 ± 2 µM. The 50% inhibitory concentration (IC50) with human lymphocytes was 36 ± 2 µM. In addition, the IC50 with Plasmodium falciparum stood at 5.5 µM.

Turning to `COc1ccc(C(=O)/C=C/c2cccc(N(C)C)c2)c(OC)c1OC` [3-N(CH3)2-2′,3′,4′-OCH3, 3-dimethylamino-2′,3′,4′-trimethoxychalcone], the melting point was 87.2 to 87.9 °C. Moreover, in the data set on Leishmania promastigotes, the half-maximal inhibitory concentration (IC50) was determined as 20 ± 3 µM. Also, the IC50 in the data set on human lymphocytes was 26 ± 1 µM. In addition, the IC50 with Plasmodium falciparum was found to be 12 µM.

Turning to `COc1cc(/C=C/C(=O)c2ccccc2[N+](=O)[O-])cc(OC)c1` [2′-NO2-3,5-OCH3, 3,5-dimethoxy-2′-nitrochalcone], the melting point was in the range of 98.4 to 98.9 °C. The IC50 with Leishmania promastigotes was 3.4 ± 0.5 µM. Also, the IC50 in the data set on human lymphocytes was 3.7 ± 0.2 µM. Moreover, in the data set on Plasmodium falciparum, the half-maximal inhibitory concentration (IC50) stood at 7.4 µM.

With `COc1cc(/C=C/C(=O)c2cccc(N(C)C)c2)cc(OC)c1` [3′-N(CH3)2-3,5-OCH3, 3,5-dimethoxy-3′-dimethylaminochalcone], the melting point is 81.8 to 82.6 °C. Besides, the IC50 in the data set with Leishmania promastigotes is 5.8 ± 0.7 µM. In the data set on human lymphocytes, the half-maximal inhibitory concentration (IC50) is 5 ± 0.2 µM. The IC50 with Plasmodium falciparum amounted to 29 µM.

In turn, `CCCCOc1ccccc1/C=C/C(=O)c1ccc(OC)c(OC)c1OC` [2-OC4H9-2′,3′,4′-OCH3, 2-butoxy-2′,3′,4′-trimethoxychalcone] gave a melting point of 129.4 to 130.2 °C. Also, the concentration for half-maximal inhibition (IC50) in the data set with Leishmania promastigotes worked out at 26 ± 1 µM. Moreover, the IC50 with human lymphocytes was found to be 52 ± 3 µM. For the same molecule, in the data set on Plasmodium falciparum, the IC50 worked out at 7.8 µM.

The molecule `COc1cc(/C=C/C(=O)c2ccccc2O)cc(OC)c1` [2′-OH-3,5-OCH3, 3,5-dimethoxy-2′-hydroxychalcone] had a melting point of 110.2 to 110.9 °C. Besides, the IC50 in the data set on Leishmania promastigotes is 3.8 ± 0.9 µM. In addition, in the data set with human lymphocytes, the IC50 is 8.1 ± 0.8 µM. Besides, the IC50 with Plasmodium falciparum amounted to 20 µM.

With `COc1cccc(C(=O)/C=C/c2ccc(OC)cc2OC)c1` [3′,2,4-OCH3, 2,4,3′-trimethoxychalcone], the melting point was 75.6 to 78.9 °C. The IC50 in the data set with Leishmania promastigotes was found to be 18 ± 3 µM. The IC50 in the data set with human lymphocytes amounted to 42 ± 2 µM.

As to `O=C(/C=C/c1ccc(Oc2ccccc2)cc1)c1ccc(F)cc1` [4′-F-4-OC6H5, 4-phenoxy-4′-fluorochalcone], the melting point lay within 115.7 to 116 °C. In the data set on Leishmania promastigotes, the IC50 is 42 ± 6 µM. For the same molecule, the concentration for half-maximal inhibition (IC50) in the data set with human lymphocytes is 33 ± 2 µM.

For orientation: MIC means the lowest concentration found to suppress growth. `COc1ccc(C(=O)/C=C/c2ccccc2[N+](=O)[O-])c(OC)c1OC` [PH98, 2-nitro-2′,3′,4′-trimethoxychalcone] registered a melting point of 107.1 to 108 °C. In addition, in the data set with Helicobacter pylori (Helicobacter pylori, 20 strains of H. pylori, agar plate, 72 hours, read-out: MIC), the MIC is 16 µg/mL (≈ 46.6 µM). Besides, the “strains of Helicobacter pylori inhibited” value in the data set with Helicobacter pylori (at a concentration of 16 μg/ml, 20 strains) is listed as 4 out of 20. In addition, in the data set on Helicobacter pylori (at the MIC of the same line), the “No. strains inhibited/No. strains tested” value is given as 6/20. Further, the IC50 in the data set with Leishmania promastigotes was found to be 5.9 ± 0.4 µM. The IC50 with human lymphocytes was 7 ± 0.6 µM. Moreover, in the data set with Plasmodium falciparum, the IC50 was found to be 9.3 µM.

In turn, `O=C(/C=C/c1ccc(Oc2ccccc2)cc1)c1ccc(C2CCCCC2)cc1` [4′-cC6H11-4-OC6H5, 4-phenoxy-4′-cyclohexylchalcone] registered a melting point of 160.9 to 161.1 °C. Moreover, in the data set with Plasmodium falciparum, the IC50 was determined as 200 µM.

`CCCCOc1ccccc1C(=O)/C=C/c1cc(OC)cc(OC)c1` [2′-OC4H9-3,5-OCH3, 3,5-dimethoxy-2′-butoxychalcone] showed a melting point of 69.5 to 70.1 °C. Besides, the IC50 with Leishmania promastigotes was found to be 7.2 ± 1.2 µM. In addition, the IC50 in the data set with human lymphocytes turned out to be 13 ± 1 µM. The half-inhibitory concentration (IC50) in the data set on Plasmodium falciparum was determined as 25 µM.

As to `COc1ccc(C(=O)/C=C/c2ccc(C#N)cc2)c(OC)c1OC` [4-CN-2′,3′,4′-OCH3, 4-cyano-2′,3′,4′-trimethoxychalcone], the melting point was 131.7 to 133 °C. In addition, the IC50 with Leishmania promastigotes was 8.6 ± 0.9 µM. In addition, in the data set on human lymphocytes, the IC50 turned out to be 5.4 ± 0.3 µM. For the same molecule, the IC50 in the data set with Plasmodium falciparum is 7.6 µM.
